Measured values: ChEMBL document CHEMBL4706628, “Ligand-based optimization to identify novel 2-aminobenzo[d]thiazole derivatives as potent sEH inhibitors with anti-inflammatory effects” (Eur J Med Chem, 2021)
≈ marks a conversion by molar mass, not a printed value.

Tests used:
[1] = molecular target: T1, Bifunctional epoxide hydrolase 2 (Homo sapiens, UniProt P34913); assay: Inhibition of recombinant human sEH using PHOME as substrate measured after 15 mins by fluorescence assay
T1 sequence (P34913 whole entry): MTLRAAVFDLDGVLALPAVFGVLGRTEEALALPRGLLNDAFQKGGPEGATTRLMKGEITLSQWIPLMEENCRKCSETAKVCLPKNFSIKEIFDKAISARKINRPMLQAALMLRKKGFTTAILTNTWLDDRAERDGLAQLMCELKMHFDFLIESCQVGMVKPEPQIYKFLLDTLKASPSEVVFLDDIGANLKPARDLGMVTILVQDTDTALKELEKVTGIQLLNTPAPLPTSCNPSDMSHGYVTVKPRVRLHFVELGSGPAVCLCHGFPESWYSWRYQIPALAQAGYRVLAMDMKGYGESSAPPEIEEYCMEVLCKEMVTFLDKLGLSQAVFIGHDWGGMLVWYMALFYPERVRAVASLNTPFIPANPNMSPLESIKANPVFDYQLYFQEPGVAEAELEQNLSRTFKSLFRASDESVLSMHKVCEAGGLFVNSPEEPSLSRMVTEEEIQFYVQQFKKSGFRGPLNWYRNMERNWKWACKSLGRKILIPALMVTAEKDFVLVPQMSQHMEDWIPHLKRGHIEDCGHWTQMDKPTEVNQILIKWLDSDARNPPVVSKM

[2] = molecular target: T2, Bifunctional epoxide hydrolase 2 (Homo sapiens) (UniProt P34913); assay: Inhibition of recombinant human sEH at 100 nM using PHOME as substrate measured after 15 mins by fluorescence assay relative to control
T2 sequence (whole entry): T1 sequence (P34913 whole entry)

[3] = system: Mus musculus; assay: Antiinflammatory activity in BALB/c mouse model of carrageenan-induced paw edema assessed as paw edema at 100 mg/kg, ip pretreated for 1 hr followed by carrageenan challenge and measured after 1 hr by caliper method relative to control; type: functional; details: time 2 hrs
[4] = system: Mus musculus; assay: Antiinflammatory activity in BALB/c mouse model of carrageenan-induced paw edema assessed as paw thickness at 100 mg/kg, ip pretreated for 1 hr followed by carrageenan challenge and measured after 4 hrs by caliper method (reference value: 3.60 +/- 0.12 millimeter); type: functional; details: time 5 hrs
[5] = system: Mus musculus; assay: Antiinflammatory activity in BALB/c mouse model of carrageenan-induced paw edema assessed as paw edema at 100 mg/kg, ip pretreated for 1 hr followed by carrageenan challenge and measured after 4 hrs by caliper method relative to control; type: functional; details: time 5 hrs
[6] = system: Mus musculus; assay: Antiinflammatory activity in BALB/c mouse model of carrageenan-induced paw edema assessed as paw edema at 100 mg/kg, ip pretreated for 1 hr followed by carrageenan challenge and measured after 2 hrs by caliper method relative to control; type: functional; details: time 3 hrs
[7] = system: Mus musculus; assay: Antiinflammatory activity in BALB/c mouse model of carrageenan-induced paw edema assessed as paw thickness at 100 mg/kg, ip pretreated for 1 hr followed by carrageenan challenge and measured after 1 hr by caliper method (reference value: 3.51 +/- 0.19 millimeter); type: functional; details: time 2 hrs
[8] = system: Mus musculus; assay: Antiinflammatory activity in BALB/c mouse model of carrageenan-induced paw edema assessed as paw edema at 100 mg/kg, ip pretreated for 1 hr followed by carrageenan challenge and measured after 3 hrs by caliper method relative to control; type: functional; details: time 4 hrs
[9] = system: Mus musculus; assay: Antiinflammatory activity in BALB/c mouse model of carrageenan-induced paw edema assessed as paw thickness at 100 mg/kg, ip pretreated for 1 hr followed by carrageenan challenge and measured after 2 hrs by caliper method (reference value: 3.56 +/- 0.29 millimeter); type: functional; details: time 3 hrs
[10] = system: Mus musculus; assay: Antiinflammatory activity in BALB/c mouse model of carrageenan-induced paw edema assessed as paw thickness at 100 mg/kg, ip pretreated for 1 hr followed by carrageenan challenge and measured after 3 hrs by caliper method (reference value: 3.61 +/- 0.36 millimeter); type: functional; details: time 4 hrs
[11] = in vitro; details: Sprague-Dawley, rat, liver microsomes
[12] = in vitro; details: Sprague-Dawley, rat, liver microsomes; remark: listed apart in the source
[13] = in vitro; details: Sprague-Dawley, rat, liver microsomes; remark: listed apart in the source
Description: Stability in Sprague-Dawley rat liver microsomes assessed as parent compound remaining at 10 uM measured after 60 mins in absence of NADPH regenerating system by HPLC analysis

[14] = in vitro; details: Sprague-Dawley, rat, liver microsomes; remark: listed apart in the source
Description: Half life in Sprague-Dawley rat liver microsomes at 10 uM measured up to 60 mins in presence of NADPH regenerating system by HPLC analysis

[15] = in vitro; details: Sprague-Dawley, rat, liver microsomes; remark: listed apart in the source
Description: Stability in Sprague-Dawley rat liver microsomes assessed as parent compound remaining at 10 uM measured after 60 mins in presence of NADPH regenerating system by HPLC analysis

[16] = Solubility of compound in pH 7.4 PBS buffer measured after 2 hrs by turbidimetric assay; type: physicochemical
[17] = system: HepG2; assay: Cytotoxicity against human HepG2 cells assessed as reduction in cell viability measured after 48 hrs by MTT assay; type: cell-based; details: HepG2, 48 h
[18] = molecular target: T1, Bifunctional epoxide hydrolase 2; assay: Mixed-type inhibition of recombinant human sEH using PHOME as substrate measured after 15 mins by fluorescence based Lineweaver-burk plot analysis
[19] = molecular target: T2, Bifunctional epoxide hydrolase 2 (Homo sapiens); assay: Mixed-type inhibition of recombinant human sEH assessed as inhibitor dissociation constant using PHOME as substrate measured after 15 mins by fluorescence based Lineweaver-burk plot analysis
[20] = molecular target: T2, Bifunctional epoxide hydrolase 2 (Homo sapiens); assay: Potency index, ratio of t-AUCB IC50 to test compound IC50 for recombinant human sEH

O=C(Cc1ccccc1F)Nc1nc2ccc(N(CCN3CCOCC3)C(=O)Nc3ccc(Cl)cc3)cc2s1
IC50 [1]: 4.08 nM
inhibition [2]: 82.5%

CC1CCN(CCN(C(=O)Nc2ccc(Cl)cc2)c2ccc3nc(N)sc3c2)CC1
IC50 [1]: 20.2 nM
inhibition [2]: 77.5%

CCc1ccc(NC(=O)N(CCN2CCOCC2)c2ccc3nc(NC(=O)Cc4ccccc4F)sc3c2)cc1
IC50 [1]: 5.4 nM
inhibition [2]: 85.2%

Nc1nc2ccc(NC(=O)NC34CC5CC(CC(C5)C3)C4)cc2s1
IC50 [1]: 822 nM
inhibition [2]: 77.3%

CC(C)Oc1ccc(NC(=O)N(CCN2CCOCC2)c2ccc3nc(N)sc3c2)cc1
IC50 [1]: 122 nM
inhibition [2]: 56.6%

Nc1nc2ccc(N(CCN3CCOCC3)C(=O)Nc3cccc4ccccc34)cc2s1
IC50 [1]: 151 nM
inhibition [2]: 39%

O=C(NC12CC3CC(CC(C3)C1)C2)N[C@H]1CC[C@H](Oc2ccc(C(=O)O)cc2)CC1
Activity [3]: 25.01%
Activity [4]: 3.28 mm
Activity [5]: 24.71%
Activity [6]: 22.61%
Activity [7]: 3.3 mm
Activity [8]: 24.98%
Activity [9]: 3.23 mm
Activity [10]: 3.29 mm

Cc1cccc(NC(=O)N(CCN2CCOCC2)c2ccc3nc(N)sc3c2)c1
IC50 [1]: 101 nM
inhibition [2]: 61.7%

Nc1nc2ccc(N(CCN3CCCCC3)C(=O)Nc3ccc(Cl)cc3)cc2s1
IC50 [1]: 6.5 nM
inhibition [2]: 84.6%

O=C(O)Cc1ccccc1Nc1c(Cl)cccc1Cl [DICLOFENAC]
microsomal CLint at 1 h, 10 µM [11]: 59.3 µL/min/mg
microsomal CLint at 1 h, 10 µM [12]: 107 µL/min/mg
remaining at 1 h, 10 µM [13]: 96.3%
half-life at 1 h, 10 µM [14]: 23.4 min
remaining at 1 h, 10 µM [15]: 16.9%

CCN(CC)CCN(C(=O)Nc1ccc(Cl)cc1)c1ccc2nc(N)sc2c1
IC50 [1]: 24.5 nM
inhibition [2]: 86.3%

Nc1nc2ccc(NC(=O)NC3CCCCC3)cc2s1
IC50 [1]: 4.1 nM
inhibition [2]: 59.9%

CCc1ccc(NC(=O)N(CCN2CCOCC2)c2ccc3nc(N)sc3c2)cc1
IC50 [1]: 1.9 nM
inhibition [2]: 84.7%

Nc1nc2ccc(NC(=O)Nc3ccc(Cl)cc3)cc2s1
IC50 [1]: 10.1 nM
inhibition [2]: 76.1%

Nc1nc2ccc(N(CCN3CCOCC3)C(=O)Nc3ccc(Cl)cc3)cc2s1
Activity [3]: 20.99%
Activity [4]: 3.17 mm
solubility kinetic at 2 h [16]: 39 µg/mL (≈ 90.3 µM)
IC50 [17]: > 25000 nM
Activity [5]: 23.39%
IC50 [1]: 2.8 nM
Activity [6]: 19.06%
Activity [7]: 3.11 mm
Activity [8]: 21.64%
microsomal CLint at 1 h, 10 µM [11]: 40 µL/min/mg
Activity [9]: 3.06 mm
microsomal CLint at 1 h, 10 µM [12]: 71.9 µL/min/mg
remaining at 1 h, 10 µM [13]: 99.5%
Activity [10]: 3.13 mm
inhibition [2]: 89.1%
half-life at 1 h, 10 µM [14]: 34.7 min
remaining at 1 h, 10 µM [15]: 30.1%

O=C(Cc1ccccc1)Nc1nc2ccc(N(CCN3CCOCC3)C(=O)Nc3ccc(Cl)cc3)cc2s1
Ki [18]: 4.77 nM
Activity [3]: 21.56%
Activity [4]: 3.3 mm
solubility kinetic at 2 h [16]: 61 µg/mL (≈ 111 µM)
IC50 [17]: > 25000 nM
Activity [5]: 20.32%
IC50 [1]: 0.082 nM
Activity [6]: 17.58%
Activity [7]: 3.33 mm
Kdiss [19]: 23.1 nM
Activity [8]: 16.48%
microsomal CLint at 1 h, 10 µM [11]: 820 µL/min/mg
Activity [9]: 3.22 mm
microsomal CLint at 1 h, 10 µM [12]: 1480 µL/min/mg
remaining at 1 h, 10 µM [13]: 116%
Activity [10]: 3.19 mm
inhibition [2]: 84.7%
half-life at 1 h, 10 µM [14]: 1.7 min
remaining at 1 h, 10 µM [15]: 0%

Nc1nc2ccc(N(CCN3CCOCC3)C(=O)Nc3ccc(Br)cc3)cc2s1
IC50 [1]: 16.2 nM
inhibition [2]: 83.8%

CC(C)c1ccc(NC(=O)N(CCN2CCOCC2)c2ccc3nc(N)sc3c2)cc1
IC50 [1]: 11.2 nM
inhibition [2]: 75.2%

O=C(Nc1ccc(Cl)cc1)Nc1nc2ccc(N(CCN3CCOCC3)C(=O)Nc3ccc(Cl)cc3)cc2s1
solubility kinetic at 2 h [16]: 30 µg/mL (≈ 51.2 µM)
IC50 [1]: 0.1 nM
Ratio IC50 [20]: 67
inhibition [2]: 90.2%

CN1CCN(C(=O)Nc2nc3ccc(N(CCN4CCOCC4)C(=O)Nc4ccc(Cl)cc4)cc3s2)CC1
inhibition [2]: 64%

CC(=O)c1ccc(NC(=O)N(CCN2CCOCC2)c2ccc3nc(N)sc3c2)cc1
inhibition [2]: 28.2%

Nc1nc2ccc(NC(=O)Nc3cccc4ccccc34)cc2s1
inhibition [2]: 34.1%

Nc1nc2ccc(N(CCN3CCOCC3)C(=O)Nc3ccccc3Cl)cc2s1
inhibition [2]: 59.7%

Cc1ccc(NC(=O)N(CCN2CCOCC2)c2ccc3nc(N)sc3c2)cc1
IC50 [1]: 8.3 nM
inhibition [2]: 73.1%

Nc1nc2ccc(N(CCN3CCOCC3)C(=O)Nc3ccc(F)c(Br)c3)cc2s1
Activity [3]: 30.86%
Activity [4]: 3.06 mm
solubility kinetic at 2 h [16]: 68 µg/mL (≈ 138 µM)
IC50 [17]: > 25000 nM
Activity [5]: 27.12%
Activity [6]: 31.49%
Activity [7]: 3.15 mm
Activity [8]: 27.39%
microsomal CLint at 1 h, 10 µM [11]: 31 µL/min/mg
Activity [9]: 3.16 mm
microsomal CLint at 1 h, 10 µM [12]: 55.8 µL/min/mg
remaining at 1 h, 10 µM [13]: 85%
Activity [10]: 3.06 mm
inhibition [2]: 90.5%
half-life at 1 h, 10 µM [14]: 44.7 min
remaining at 1 h, 10 µM [15]: 36.2%

Nc1nc2ccc(N(CCN3CCOCC3)C(=O)Nc3ccc(Cl)cc3Cl)cc2s1
inhibition [2]: 58.4%

COc1ccc(CC(=O)Nc2nc3ccc(N(CCN4CCOCC4)C(=O)Nc4ccc(Cl)cc4)cc3s2)cc1
inhibition [2]: 65.8%

O=C(Nc1ccc(Cl)cc1)Nc1nc2ccc([N+](=O)[O-])cc2s1
inhibition [2]: 7.2%
